Read-outs that look alike come from different tables or passages of the source.
Assay type: in vivo, marmosets
Conditions: for T1 (mean), Blood: 0.3 ml/kg, pre-contrast 507

For `O.O.O=C([O-])CN(CC(=O)[O-])[C@@H]1CCCC[C@H]1N(CC(=O)[O-])CC(=O)[O-].[Mn+2].[Na+].[Na+]` (relative stereo) [EXAMPLE 1 (E), disodium (trans-1,2-diaminocyclohexane-N,N,N',N'-tetraacetate) manganese dihydrate], which “Blood (5 min) and liver T1 values (in words)” value (0.3 ml/kg i.v.) is on record?
Its value is “substantially reduced”.

What about the “several other tissue T1's (in words)” value (0.3 ml/kg i.v.) of the same compound?
Its value is “slightly reduced”.

And the “T1 (mean), Blood” value (5 minute)?
Its value is 375.

And the “T1 (mean), Blood” value (10 minute)?
The value was 454.

And the “Tissue T1 (mean), Bladder” value (15 min after 0.3 ml/kg)?
Its value is 217.

And the “Tissue T1 (mean), Fat” value (15 min after 0.3 ml/kg)?
The value was 68.

And the “Tissue T1 (mean), Large Intestine” value (15 min after 0.3 ml/kg)?
The value was 185.

What about the “Tissue T1 (mean), Liver” value (15 min after 0.3 ml/kg) of the same compound?
Its value is 32.

And the “Tissue T1 (mean), Lung” value (15 min after 0.3 ml/kg)?
The value was 280.

What about the “Tissue T1 (mean), Pancreas” value (15 min after 0.3 ml/kg) of the same compound?
The value was 103.

And the “Tissue T1 (mean), Renal Cortex” value (15 min after 0.3 ml/kg)?
The value was 152.

And the “Tissue T1 (mean), Renal Medulla” value (15 min after 0.3 ml/kg)?
The value was 209.

And the “Tissue T1 (mean), Skeletal Muscle” value (15 min after 0.3 ml/kg)?
The value was 206.

And the “Tissue T1 (mean), Small Intestine” value (15 min after 0.3 ml/kg)?
The value was 107.

And the “Tissue T1 (mean), Spleen” value (15 min after 0.3 ml/kg)?
The value was 221.

And the “Tissue T1 (mean), Stomach” value (15 min after 0.3 ml/kg)?
Its value is 145.

What about the “Tissue T1 (mean), Heart” value (15 min after 0.3 ml/kg (0.118 mmol Mn(II)/kg)) of the same compound?
The value was 183.

What about the “T1 (mean), Blood” value (15 minute) of the same compound?
The value was 511.

What about the Cardiovascular effects (in vivo, iv) of the same compound?
Its Cardiovascular effects is “minimal”.
